# Patent publication US11053204B2, “Pyrimidinyloxy benzene derivatives as herbicides” (FMC Corporation, priority 2015, dated 2021)
# How the values were obtained:
# Assay type in all cases: in vivo
# [1] = system: ragweed (common ragweed, Ambrosia elatior); assay: Test A preemergence, visual injury rating
# In short: (§1)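 Visual injury scored 0–100 (100 = complete control) against untreated controls about 10 days after treatment in a greenhouse. Test chemicals, formulated with surfactant in non-phytotoxic solvent, were sprayed on soil preemergence or on 2-10 cm, one- to two-leaf plants postemergence.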
# [2] = system: pigweed (Amaranthus retroflexus); assay: Test A preemergence, visual injury rating
# In short: as §1
# [3] = system: barnyardgrass (Echinochloa crus-galli); assay: Test A preemergence, visual injury rating
# In short: as §1
# [4] = system: Italian ryegrass (Lolium multiflorum); assay: Test A preemergence, visual injury rating
# In short: as §1
# [5] = system: giant foxtail (Setaria faberii); assay: Test A preemergence, visual injury rating
# In short: as §1
# kochia (Kochia scoparia) [6] = assay: Test A preemergence, visual injury rating
# In short: as §1
# [7] = system: crabgrass, large (large crabgrass, Digitaria sanguinalis); assay: Test C postemergence, plant response rating; conditions: for Crabgrass, Large plant response rating: scale 0 to 100 (0 no effect, 100 complete control)
# In short: (§2)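 Preemergence: seeds sown in loam–sand blend or silt loam and sprayed with test chemicals in a non-phytotoxic surfactant-containing solvent. Postemergence: potted plants at 2–18 cm (1–4-leaf stage) sprayed with the same formulation. After 13–15 d in greenhouse, visual rating versus controls on 0 (no effect) to 100 (complete control) scale.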
# [8] = system: ragweed (common ragweed, Ambrosia elatior); assay: Test C postemergence, plant response rating; conditions: for Ragweed plant response rating: scale 0 to 100 (0 no effect, 100 complete control)
# In short: as §2
# [9] = system: galium (catchweed bedstraw, Galium aparine); assay: Test C postemergence, plant response rating; conditions: for Galium plant response rating: scale 0 to 100 (0 no effect, 100 complete control)
# In short: as §2
# soybean (Glycine max) = assay: Test C postemergence, plant response rating; conditions: for Soybean plant response rating: scale 0 to 100 (0 no effect, 100 complete control)
# In short: as §2
# [10] = system: chickweed (common chickweed, Stellaria media); assay: Test C postemergence, plant response rating; conditions: for Chickweed plant response rating: scale 0 to 100 (0 no effect, 100 complete control)
# In short: as §2
# [11] = system: nutsedge, yellow (yellow nutsedge, Cyperus esculentus); assay: Test C postemergence, plant response rating; conditions: for Nutsedge, Yellow plant response rating: scale 0 to 100 (0 no effect, 100 complete control)
# In short: as §2
# [12] = system: ryegrass, Italian (Italian ryegrass, Lolium multiflorum); assay: Test C postemergence, plant response rating; conditions: for Ryegrass, Italian plant response rating: scale 0 to 100 (0 no effect, 100 complete control)
# In short: as §2
# [13] = system: waterhemp (common waterhemp, Amaranthus rudis); assay: Test C postemergence, plant response rating; conditions: for Waterhemp plant response rating: 125 g ai/ha, scale 0 to 100 (0 no effect, 100 complete control)
# In short: as §2
# corn (Zea mays) = assay: Test C postemergence, plant response rating; conditions: for Corn plant response rating: scale 0 to 100 (0 no effect, 100 complete control)
# In short: as §2
# [14] = system: lambsquarters (Chenopodium album); assay: Test C postemergence, plant response rating; conditions: for Lambsquarters plant response rating: scale 0 to 100 (0 no effect, 100 complete control)
# In short: as §2
# [15] = system: oat, wild (wild oat Avena fatua); assay: Test C postemergence, plant response rating; conditions: for Oat, Wild plant response rating: scale 0 to 100 (0 no effect, 100 complete control)
# In short: as §2
# kochia (Kochia scoparia) [16] = assay: Test C postemergence, plant response rating; conditions: for Kochia plant response rating: scale 0 to 100 (0 no effect, 100 complete control)
# In short: as §2
# [17] = 125 g ai/ha, 0 to 100 scale (0 no effect, 100 complete control)
# [18] = 500 g ai/ha, 0 to 100 scale (0 no effect, 100 complete control)
# [19] = 31 g ai/ha, 0 to 100 scale, 0 no effect, 100 complete control
smiles,measurement,setting,value
CCCC(=O)c1c(Oc2ncc(Cl)cn2)cccc1C(F)(F)F [Compound 136],"Plant response rating, Ragweed",[1]; [17],80
same,Ragweed plant response rating,[1]; [18],80
same,"Plant response rating, Pigweed",[2]; [17],100
same,Pigweed plant response rating,[2]; [18],100
same,"Plant response rating, Barnyardgrass",[3]; [17],100
same,Barnyardgrass plant response rating,[3]; [18],100
same,"Plant response rating, Ryegrass, Italian",[4]; [17],20
same,"Ryegrass, Italian plant response rating",[4]; [18],100
same,"Plant response rating, Foxtail, Giant",[5]; [17],100
same,"Foxtail, Giant plant response rating",[5]; [18],100
same,"Plant response rating, Kochia",kochia (Kochia scoparia) [6]; [17],100
same,Kochia plant response rating,kochia (Kochia scoparia) [6]; [18],100
same,"Plant response rating, Crabgrass, Large","[7]; 16 g ai/ha, scale of 0 to 100",5
same,"Plant response rating, Crabgrass, Large","[7]; 31 g ai/ha, scale 0 to 100",5
same,"Crabgrass, Large plant response rating",[7]; 62 g ai/ha,10
same,"Crabgrass, Large plant response rating",[7]; 125 g ai/ha,30
same,"Plant response rating, Ragweed","[8]; 16 g ai/ha, scale of 0 to 100",20
same,"Plant response rating, Ragweed","[8]; 31 g ai/ha, scale 0 to 100",20
same,Ragweed plant response rating,[8]; 62 g ai/ha,30
same,Ragweed plant response rating,[8]; 125 g ai/ha,35
same,"Plant response rating, Galium","[9]; 16 g ai/ha, scale of 0 to 100",50
same,"Plant response rating, Galium","[9]; 31 g ai/ha, scale 0 to 100",65
same,Galium plant response rating,[9]; 62 g ai/ha,60
same,Galium plant response rating,[9]; 125 g ai/ha,75
same,"Plant response rating, Soybean","soybean (Glycine max); 16 g ai/ha, scale of 0 to 100",30
same,"Plant response rating, Soybean","soybean (Glycine max); 31 g ai/ha, scale 0 to 100",40
same,Soybean plant response rating,soybean (Glycine max); 62 g ai/ha,50
same,Soybean plant response rating,soybean (Glycine max); 125 g ai/ha,40
same,"Plant response rating, Chickweed","[10]; 16 g ai/ha, scale of 0 to 100",55
same,"Plant response rating, Chickweed","[10]; 31 g ai/ha, scale 0 to 100",65
same,Chickweed plant response rating,[10]; 62 g ai/ha,75
same,Chickweed plant response rating,[10]; 125 g ai/ha,80
same,"Plant response rating, Nutsedge, Yellow","[11]; 16 g ai/ha, scale of 0 to 100",0
same,"Plant response rating, Nutsedge, Yellow","[11]; 31 g ai/ha, scale 0 to 100",0
same,"Nutsedge, Yellow plant response rating",[11]; 62 g ai/ha,0
same,"Nutsedge, Yellow plant response rating",[11]; 125 g ai/ha,5
same,"Plant response rating, Ryegrass, Italian","[12]; 16 g ai/ha, scale of 0 to 100",0
same,"Plant response rating, Ryegrass, Italian","[12]; 31 g ai/ha, scale 0 to 100",5
same,"Ryegrass, Italian plant response rating",[12]; 62 g ai/ha,5
same,"Ryegrass, Italian plant response rating",[12]; 125 g ai/ha,10
same,"Plant response rating, Waterhemp","[13]; 16 g ai/ha, scale of 0 to 100",70
same,"Plant response rating, Waterhemp","[13]; 31 g ai/ha, scale 0 to 100",70
same,Waterhemp plant response rating,[13],75
same,"Plant response rating, Corn","corn (Zea mays); 16 g ai/ha, scale of 0 to 100",5
same,"Plant response rating, Corn","corn (Zea mays); 31 g ai/ha, scale 0 to 100",10
same,Corn plant response rating,corn (Zea mays); 62 g ai/ha,20
same,Corn plant response rating,corn (Zea mays); 125 g ai/ha,20
same,"Plant response rating, Lambsquarters","[14]; 16 g ai/ha, scale of 0 to 100",55
same,"Plant response rating, Lambsquarters","[14]; 31 g ai/ha, scale 0 to 100",75
same,Lambsquarters plant response rating,[14]; 62 g ai/ha,80
same,Lambsquarters plant response rating,[14]; 125 g ai/ha,80
same,"Plant response rating, Oat, Wild","[15]; 16 g ai/ha, scale of 0 to 100",5
same,"Plant response rating, Oat, Wild","[15]; 31 g ai/ha, scale 0 to 100",5
same,"Oat, Wild plant response rating",[15]; 62 g ai/ha,10
same,"Oat, Wild plant response rating",[15]; 125 g ai/ha,10
same,"Plant response rating, Kochia","kochia (Kochia scoparia) [16]; 16 g ai/ha, scale of 0 to 100",80
same,"Plant response rating, Kochia","kochia (Kochia scoparia) [16]; 31 g ai/ha, scale 0 to 100",80
same,Kochia plant response rating,kochia (Kochia scoparia) [16]; 62 g ai/ha,85
same,Kochia plant response rating,kochia (Kochia scoparia) [16]; 125 g ai/ha,90
FC(F)(F)CCCCc1c(Cl)cccc1Oc1ncc(Cl)cn1 [Compound 137],"Plant response rating, Ragweed",[1]; [19],0
same,"Plant response rating, Ragweed",[1]; [17],0
same,"Plant response rating, Pigweed",[2]; [19],10
same,"Plant response rating, Pigweed",[2]; [17],100
same,"Plant response rating, Barnyardgrass",[3]; [19],0
same,"Plant response rating, Barnyardgrass",[3]; [17],90
same,"Plant response rating, Ryegrass, Italian",[4]; [19],0
same,"Plant response rating, Ryegrass, Italian",[4]; [17],20
same,"Plant response rating, Foxtail, Giant",[5]; [19],70
same,"Plant response rating, Foxtail, Giant",[5]; [17],100
same,"Plant response rating, Kochia",kochia (Kochia scoparia) [6]; [19],0
same,"Plant response rating, Kochia",kochia (Kochia scoparia) [6]; [17],70
same,"Plant response rating, Crabgrass, Large","[7]; 16 g ai/ha, scale of 0 to 100",10
same,"Plant response rating, Crabgrass, Large","[7]; 31 g ai/ha, scale 0 to 100",20
same,"Crabgrass, Large plant response rating",[7]; 62 g ai/ha,40
same,"Crabgrass, Large plant response rating",[7]; 125 g ai/ha,70
same,"Plant response rating, Ragweed","[8]; 16 g ai/ha, scale of 0 to 100",20
same,"Plant response rating, Ragweed","[8]; 31 g ai/ha, scale 0 to 100",35
same,Ragweed plant response rating,[8]; 62 g ai/ha,30
same,Ragweed plant response rating,[8]; 125 g ai/ha,30
same,"Plant response rating, Galium","[9]; 16 g ai/ha, scale of 0 to 100",55
same,"Plant response rating, Galium","[9]; 31 g ai/ha, scale 0 to 100",70
same,Galium plant response rating,[9]; 62 g ai/ha,75
same,Galium plant response rating,[9]; 125 g ai/ha,85
same,"Plant response rating, Soybean","soybean (Glycine max); 16 g ai/ha, scale of 0 to 100",20
same,"Plant response rating, Soybean","soybean (Glycine max); 31 g ai/ha, scale 0 to 100",30
same,Soybean plant response rating,soybean (Glycine max); 62 g ai/ha,45
same,Soybean plant response rating,soybean (Glycine max); 125 g ai/ha,40
same,"Plant response rating, Chickweed","[10]; 16 g ai/ha, scale of 0 to 100",70
same,"Plant response rating, Chickweed","[10]; 31 g ai/ha, scale 0 to 100",55
same,Chickweed plant response rating,[10]; 62 g ai/ha,90
same,Chickweed plant response rating,[10]; 125 g ai/ha,100
same,"Plant response rating, Nutsedge, Yellow","[11]; 16 g ai/ha, scale of 0 to 100",0
same,"Plant response rating, Nutsedge, Yellow","[11]; 31 g ai/ha, scale 0 to 100",0
same,"Nutsedge, Yellow plant response rating",[11]; 62 g ai/ha,10
same,"Nutsedge, Yellow plant response rating",[11]; 125 g ai/ha,5
same,"Plant response rating, Ryegrass, Italian","[12]; 16 g ai/ha, scale of 0 to 100",5
same,"Plant response rating, Ryegrass, Italian","[12]; 31 g ai/ha, scale 0 to 100",5
same,"Ryegrass, Italian plant response rating",[12]; 62 g ai/ha,5
same,"Ryegrass, Italian plant response rating",[12]; 125 g ai/ha,10
same,"Plant response rating, Waterhemp","[13]; 16 g ai/ha, scale of 0 to 100",40
same,"Plant response rating, Waterhemp","[13]; 31 g ai/ha, scale 0 to 100",60
same,Waterhemp plant response rating,[13],75
same,"Plant response rating, Corn","corn (Zea mays); 16 g ai/ha, scale of 0 to 100",10
same,"Plant response rating, Corn","corn (Zea mays); 31 g ai/ha, scale 0 to 100",15
same,Corn plant response rating,corn (Zea mays); 62 g ai/ha,15
same,Corn plant response rating,corn (Zea mays); 125 g ai/ha,25
same,"Plant response rating, Lambsquarters","[14]; 16 g ai/ha, scale of 0 to 100",55
same,"Plant response rating, Lambsquarters","[14]; 31 g ai/ha, scale 0 to 100",75
same,Lambsquarters plant response rating,[14]; 62 g ai/ha,85
same,Lambsquarters plant response rating,[14]; 125 g ai/ha,90
same,"Plant response rating, Oat, Wild","[15]; 16 g ai/ha, scale of 0 to 100",5
same,"Plant response rating, Oat, Wild","[15]; 31 g ai/ha, scale 0 to 100",10
same,"Oat, Wild plant response rating",[15]; 62 g ai/ha,10
same,"Oat, Wild plant response rating",[15]; 125 g ai/ha,10
same,"Plant response rating, Kochia","kochia (Kochia scoparia) [16]; 16 g ai/ha, scale of 0 to 100",85
same,"Plant response rating, Kochia","kochia (Kochia scoparia) [16]; 31 g ai/ha, scale 0 to 100",90
same,Kochia plant response rating,kochia (Kochia scoparia) [16]; 62 g ai/ha,98
same,Kochia plant response rating,kochia (Kochia scoparia) [16]; 125 g ai/ha,98
